Consider two molecules from US11311537B2, “Diagnosis and treatment of lymphoproliferative disorders with PARP inhibitors” (UNIVERSITY OF MIAMI, priority 2016, dated 2022).

“Also recorded” adds a separate entry of the source.

Data set [1] relates to DLBCL LMO2+ cell lines (OCI-Ly8, OCI-Ly19, DOHH2). The data set is described as follows: Colony formation assay, olaparib in combination with genotoxic agents (Combination Index). The class given is cell-based, human.
Description: Only colonies with 50 or more cells where counted. *P<0.001, Two-way ANOVA. […] CI, Combination Index (CI<1 indicates a synergistic effect).
Data set [2] relates to OCI-Ly19 xenografts (LMO2 positive). The data set is described as follows: DLBCL subcutaneous xenograft model. The class given is in vivo, NOD/SCID mice. Particulars: for lifespan (survival): olaparib 50 mg/kg IP, 21 days, vs control group. The source says: (§1) Subcutaneous xenograft tumors were generated by human DLBCL cells (OCI-Ly19 or OCI-Ly1) injected into NOD/SCID (5 million cells/mouse). Treatment started when tumor reached 100 mm^3 (˜10 days post-injection). FIG. 5A, Kaplan-Meier plots: OCI-Ly19 (n=per group: n=8 CTL, n=9 olaparib, n=5 RCHOP, n=5 RCHOP+olaparib) and OCI-Ly1 (n=5 per group). Mice were euthanized when the tumor volume reached 1500 mm^3 in accordance with the institutional guidelines. Statistical analysis was done by the log rank (Mantel-Cox) test. FIG. 5B, Ex vivo analyses of the tumors. The xenografts were generated as described above. Shown are representative FACS analyses of the OCI-Ly19 tumor cells exposed or not to olaparib during 3 days and stained with Annexin V and propidium iodide (PI). FIG. 5C, Tunnel assays in OCI-Ly19 tumor samples exposed or not to olaparib.
(§2) All mice studies were conducted after approval of IACUC protocol. For DLBCL xenograft model, five-week-old female NOD/SCID mice (Harlan's) were subcutaneously injected with DLBCL cell line OCI-LY19 (5×10^6 cells/mouse) into the right flank. Once tumors reached 100 mm^3, mice were subdivided into two experimental groups (n=5-7/group). One group received buffer solution (1×PBS) and the other group received Olaparib (50 mg/kg; LC Labs, MA) for 21 consecutive days via IP injection. In separate experiments, one group received buffer solution (1×PBS), second group received Olaparib (50 mg/kg; LC Labs, MA), third group RCHOP (Rituximab 20 mg/kg, i.v. for a single dose on D1; cyclophosphamide, 40 mg/kg, D1; doxorubicin, 3.3 mg/kg, i.v. D1; vincristine, 0.5 mg/kg, i.v. D1; and prednisone, 0.2 mg/kg, every day by oral gavage on D1-5 and fourth group combination of Olaparib with RCHOP. Tumor bearing mice were observed every two days for tumor volume and weight loss was measured using standard calipers. Once the tumor volume exceeded 1500 mm^3 or the mouse […] dropped more than 10% total body weight, the mice were sacrificed.

For data set [3], the system named is OCI-Ly1 xenografts (LMO2 negative). Description: DLBCL subcutaneous xenograft model. Conditions: olaparib 50 mg/kg. The class given is in vivo, NOD/SCID mice.
Description: as §1, §2

Data set [4] has as its system MOLT16 (LMO2-positive) versus Jurkat (LMO2-negative). The data set is described as follows: MTS cell proliferation assay in T-ALL cell lines. The class given is cell-based, human. Particulars: LMO2 expressing versus LMO2 negative T-ALL cell line, 4 days, p<0.001 by ANOVA. The source says:
(§3) FIG. 7A, quantification of cell proliferation via MTS assay in MOLT16 (LMO2+) and Jurkat (LMO2−) T cell lymphoblastic leukemia cell lines exposed to different concentrations of olaparib during 4 days. *P<0.001, Two-way ANOVA. FIG. 7B, quantification of the flow cytometer results for Annexin V staining after 4 days in presence or absence of indicated concentrations of olaparib for cell death analysis in the indicated T cell lymphoblastic leukemia cell lines.
(§4) Proliferation and cell cycle studies: Cell proliferation was studied using cell titer 96 Aqueous Non-radioactive cell proliferation (MTS) kit from Promega. This assay was performed following manufacturer's instructions. For cell cycle studies, cells were fixed with 70% cold ethanol and incubated overnight at 4° C. Next, cells were washed once with 1×PBS and incubated with 50 μg/ml Propidium Iodide (Invitrogen) and RNAse (0.1 mg/ml) for 30 min. Cells were analyzed using a flow cytometer (BD FACS Canto-II analyzer).

The test system is the same in data set [5]. The data set is described as follows: Annexin V cell death analysis in T-ALL cell lines. The class given is cell-based, human. Conditions: LMO2 expressing versus LMO2 negative T-ALL cell line, 4 days.
Description: as §3

A further data set deals with OCI-Ly8 cells. Description: gammaH2AX DNA damage foci (immunofluorescence). The class given is cell-based, human. Particulars: OCI-Ly8, 24 hs exposure. As to the method:
Immunofluorescence studies: For studying DNA break repair, DNA double-strand breaks were induced either by exposing the cells to ionization radiation (IR). DLBCL cell lines were exposed to gamma ray source at 10 Gy (cobalt 60 irradiator) and U2OS cells were exposed to 4 Gy. Alternatively double-stranded breaks were induced by adding Doxorubicin (12.5 ng/ml) to the culture during 16-20 hs. Cells were attached on a glass slide pre-coated with poly-lysine for 30 min. Cells were fixed with 4% Para-formaldehyde in 1×PBS for 15 min at room temperature. After fixing, cells were permeabilized using blocking solution (1 mg/ml BSA, 5% Goat/Horse normal serum, 0.5% TritonX-100) for 30 min. Cells were incubated with primary antibodies diluted in blocking solution for 1 h. Cells were washed three times with 1×PBS 5 min each. After washing, cells were incubated with secondary antibodies diluted in blocking solution, Alexa Fluor 488 or Alexa Fluor 594 for 30 min. Cells were then washed with 1×PBS twice for 5 min each wash. Nuclear DNA was visualized via DAPI (1 μg/ml) (Sigma Aldrich) staining for 15 min. Finally, cells were washed with 1×PBS for 15 min to remove excess stain and mounted with Prolong Gold antifade reagent (Invitrogen). Images were acquired using a Leica DMI6000 B Fluorescence microscope.

For data set [6] the following is noted: breast cancer treated patients; cited from earlier work.
The test system of data set [7] is primary human DLBCL tumors expressing or not LMO2. The data set is described as follows: MTS assay in primary human tumor samples. The class given is cell-based. Particulars: LMO2- and reactive follicular hyperplasia.
Description: FIGS. 6A-6C: Olaparib and doxorubicin show synergy to kill primary DLBCL cells expressing LMO2. FIG. 6A, MTS assay to evaluate the effect of exposure to different concentrations of olaparib alone or in combination with doxorubicin in primary human DLBCL tumors expressing or not LMO2 and a Reactive follicular hyperplasia (LMO2−). CI, Combination Index (CI<1 indicates a synergistic effect). FIG. 6B, Western blots showing LMO2 level in human DLBCL cell lines (OCI-Ly1 (LMO2 negative), OCI-Ly19 (LMO2 positive), human primary lymphoblasts (HCC1187)), and primary human tumors (LMO2+, DLBCL expressing LMO2, LMO2−, DLBCL not expressing LMO2) and RFH-Reactive follicular hyperplasia not expressing LMO2. GAPDH was used as loading control. FIG. 6C, immunohistochemistry (IHC) for LMO2 in primary human DLBCL samples used for FIGS. 6A and 6B. H&E, hematoxylin and eosin staining.
Primary tumors were obtained from DLBCL or no DLBCL patients following appropriate consent of the IRB approved protocol and single cell suspension generated using standard techniques.
as §4

The subject of data set [8] is DLBCL LMO2+ cell lines. The data set is described as follows: Cell death analysis by Annexin V / propidium iodide flow cytometry. The class given is cell-based, human. Conditions: 4 days, 1 μM olaparib. The source says:
FIG. 4A, MTS assay to evaluate effect of olaparib on the proliferation of human lymphoblasts (HCC1187), human primary lung fibroblasts (IMR90) and human lymphomas cells (LMO2 negative (U2932, OCI-Ly1) and LMO2 positive (DOHH2, OCI-Ly8, OCI-Ly19)). *P<0.0001. Two-way ANOVA. FIG. 4B, quantification of colony formation assays in OCI-Ly1, DOHH2, VaL and Val (LMO2 KO)-LMO2-null Val cells exposed to different concentrations of olaparib. Only colonies with 50 or more cells where counted. *P<0.001, Two-way ANOVA. FIG. 4C, quantification of the flow cytometer results for Propidium Iodide (PI) and Annexin V staining after 4 days in presence or absence of 1 μM olaparib for cell death analysis in the indicated lymphoma cell lines. FIG. 4D, representative pictures of colony formation assay quantified in FIG. 4B using DOHH2 cells. […] CI, Combination Index (CI<1 indicates a synergistic effect). FIG. 4F, quantification of γH2AX DNA damage foci in OCI-Ly8 cells exposed to or not exposed to olaparib during 24 hs.
(Flow cytometry measures light scatter and fluorescence of single cells or particles in a stream.)

Data set [9] relates to DLBCL LMO2+ cell lines. The data set is described as follows: Colony-forming assay. The class given is cell-based, human. Particulars: olaparib pretreatment 48 h, colonies after 14 days. As to the method:
Colony-forming assay: Clonogenic assays were performed as described elsewhere (McDonnell, Oncogene, 31(32), 3733-3740 (2012)). In total, 500 cells were pretreated with indicated olaparib concentration (0; 1; 10; 100; 1,000; and 10,000 nM) for 48 h and seeded in triplicate in MethoCult conditioned media (Stem Cell Technologies, Vancouver, Canada). After 14 days, macroscopic colonies were stained with iodonitrotetrazolium chloride (Sigma Aldrich) overnight and counted. Only colonies with 50 or more cells were counted.

Another data set has as its system DOHH2. The data set is described as follows: MTS cell proliferation assay, olaparib IC50. The class given is cell-based. Conditions: Homo sapiens, DOHH-2; DOHH2, DLBCL LMO2+. As for the experimental part: as §4
The test system of the next data set is OCI-Ly8. The data set is described as follows: MTS cell proliferation assay, olaparib IC50. Conditions: Homo sapiens; OCI-Ly8, DLBCL LMO2+. The class given is cell-based. As to the method:
as §4
(In general: Tetrazolium assays rely on reduction of a dye to a coloured formazan, in cell work by metabolically active cells.)

For another data set, the system named is OCI-19. Description: MTS cell proliferation assay, olaparib IC50. The class given is cell-based. Conditions: Homo sapiens; OCI-19, DLBCL LMO2+. As to the method:
as §4

In data set [10] the test system is DLBCL LMO2+ cell lines (OCI-Ly8, OCI-Ly19 and DOHH2). Description: MTS cell proliferation assay. The class given is cell-based, human. Conditions: OCI-Ly8, OCI-Ly19, DOHH2 compared with IMR90, HCC1187, OCI-Ly1, U2932; p<0.001 by ANOVA. As to the method: as §4
Data set [11] relates to DLBCL LMO2- and control cell lines (OCI-Ly1, U2932, IMR90, HCC1187). The data set is described as follows: MTS cell proliferation assay. The class given is cell-based, human. As to the method:
as §4

By IC50 is commonly meant the midpoint of a concentration-inhibition curve. A low value points to greater potency.

Take `N.N.O=C([O-])C1(C(=O)[O-])CCC1.[Pt+2]` [carboplatin]: in [1] (olaparib + carboplatin, OCI-Ly19 and DOHH2), the “synergy with olaparib (carboplatin)” value is on record as “showed synergy”.

Regarding `O=C(c1cc(Cc2n[nH]c(=O)c3ccccc23)ccc1F)N1CCN(C(=O)C2CC2)CC1` [olaparib], the “cell death in tumors (Annexin V, PI, Tunnel assay)” value in data set [2] (OCI-Ly19 tumors, ex vivo analysis) is listed as “increase in cell death”. The “lifespan (survival)” value in data set [2] (OCI-Ly19 xenografts) was “increased the lifespan”; in data set [2] (OCI-Ly19 xenografts, listed as Olaparib), “prolongs survival”; in data set [3], “did not produce any effect”. The “lifespan in combination with RCHOP” value in [2] (OCI-Ly19 xenografts, olaparib + RCHOP vs RCHOP) is “increased the life-span”. Also, in data set [2] (human DLBCL cells expressing LMO2, murine xenograft), the “tumor growth in vivo” value was “slows growth”. The cell proliferation entry is listed as “decreases proliferation” in data set [4], “statistically significant (p<0.001 by ANOVA) decrease in cell proliferation” in data set [4] (listed as Olaparib) and “decreases proliferation; also recorded: statistically significant (p<0.001 by ANOVA) decrease in cell proliferation” in data set [10]. Besides, the cell death entry is on record as “induces cell apoptosis” in data set [5] and “increase in cell death” in data set [5] (listed as Olaparib). Also, the “DNA damage (γH2AX foci)” value in the data set on OCI-Ly8 cells is recorded as “increased DNA damage”. The “concentration observed in the blood” value in [6] was 2000 nM. The “proliferation capacity of primary tumor samples, olaparib alone” value in data set [7] was “only affected the proliferation capacity of the DLBCL sample expressing LMO2 protein”. The “proliferation capacity of primary tumor samples, olaparib in combination with doxorubicin” value is given as “only affected the proliferation capacity of the DLBCL sample expressing LMO2 protein” in [7] and “show synergy” in data set [7] (listed as Olaparib). Besides, in the data set with DLBCL LMO2+ cell lines [8], the “cell death via apoptosis” value is on record as “induces cell apoptosis; also recorded: increased cell death via apoptosis”. In addition, in the data set on DLBCL LMO2+ cell lines [9], the colony formation result was “pronounced olaparib-mediated decrease in colony formation”. Also, the IC50 in the data set with DOHH2 is 120 nM; with OCI-Ly8 it was 800 nM; in the data set with OCI-19 it was 130 nM. For the same molecule, the synergy with doxorubicin result in data set [1] (olaparib + doxorubicin, three DLBCL LMO2+ cell lines, preliminary studies) is given as “synergistic”. Further, the “effect on DLBCL LMO2- and control cell lines” value in data set [11] is “no or minimal effect”.
